SMILES strings stand for the structures.

Data set [1] can be described thus: Solubility test of the crystalline compound (1) and the amorphous compound (1) (apparent solubility in buffer, HPLC). Format: physicochemical. Conditions: room temperature, 30 minutes standing after ultrasonication. As for the experimental part: An excess amount of each sample was added to 0.5 mL of the following each test solution, which was then dispersed and dissolved by a ultrasonication operation for several minutes (about 3 minutes). After allowing to stand at room temperature for 30 minutes, the supernatant was separated by a centrifugation operation; the sample concentration in the supernatant as determined by an HPLC method was defined as an apparent solubility in each test solution.
pH 5: Diluted Mcllvaine buffer solution (Kanto Chemical Co. Inc.)
pH 7: GIBCO™ (Dulbecco's phosphate-buffered saline, Invitrogen Corporation)

Data set [2] is described as follows: Hygroscopicity test of the amorphous compound (1) (microbalance, weight change vs relative humidity). Format: physicochemical. Conditions: 25° C., relative humidities of 5% to 90%; FIG. 3. As for the experimental part: The hygroscopicity of the amorphous substance was evaluated using a microbalance (MB300W, VTI Corporation, USA). A sample placed in a glass holder was suspended in a device adjusted at 25° C., and a change in the weight thereof was followed over relative humidities of 5% to 90%. The sample weight was measured at measuring points (of the relative humidities) with an interval of 2 minutes; the weight at the time point of the amount of change reaching within 0.2% was defined as the final value.

Setting [3] is: pH 5 buffer (diluted McIlvaine buffer solution).
Where [4] appears, read: pH 7 buffer (Dulbecco's phosphate-buffered saline).

In the case of `COc1cc(/C=C2\CCCN([C@@H](C)c3ccc(F)cc3)C2=O)ccc1-n1cnc(C)c1` [Crystalline compound (1), (3E)-1-[(1S)-1-(4-fluorophenyl)ethyl]-3-[3-methoxy-4-(4-methyl-1H-imidazol-1-yl)benzylidene]piperidin-2-one], the figures for the Apparent solubilites in data set [1] (setting [3]) and in data set [1] (setting [4]) were 0.077 mg/mL and 0.003 mg/mL, respectively.
In the case of `COc1cc(/C=C2\CCCN([C@@H](C)c3ccc(F)cc3)C2=O)ccc1-n1cnc(C)c1` [Amorphous compound (1), (3E)-1-[(1S)-1-(4-fluorophenyl)ethyl]-3-[3-methoxy-4-(4-methyl-1H-imidazol-1-yl)benzylidene]piperidin-2-one], the “Hygroscopicity (weight change over relative humidity)” value in data set [2] is listed as “low hygroscopicity”. Moreover, the Apparent solubilites was determined as 0.225 mg/mL in data set [1] (setting [3]) and 0.011 mg/mL in data set [1] (setting [4]).

Source of the values: patent publication US7923563B2, “Amorphous object of cinnamide compound” (Eisai R&D Management Co., Ltd., priority 2004, dated 2011).
